Read-outs that look alike come from different tables or passages of the source.
Columns and labels:
229E Mpro = 229E Mpro (Human coronavirus 229E, UniProt P0C6X1); assay: 229E Mpro enzymatic assay (standard methods, SARS-CoV2 Mpro assay given as exemplary); assay type: biochemical, human coronavirus (HCov) 229E
Method: Compounds were assayed using standard methods to assess compound activity and IC50. As an exemplary for assessment of the SARS-COV2 Mpro, the C-His6-tagged Mpro (NC_045512) was cloned, expressed in E. coli and purified. The assay buffer contained 20 mM of Tris-HCl (pH 7.3), 100 mM of NaCl, 1 mM of EDTA, 5 mM of TCEP and 0.1% BSA. The final concentrations of the Mpro protein and substrate were 25 nM and 25 μM, respectively, in the Mpro enzymatic assay. The Km of the Mpro substrate for the protease was 13.5 μM.
The compounds were added to an assay plate. […] For no inhibition control (ZPE, zero percent effect), no compound was added.
IC50 values of compounds were calculated with the GraphPad Prism software using the nonlinear regression model of log(inhibitor) vs. response—Variable slope (four parameters). The inhibition activity was calculated using the formula below, IC50 values is calculated using the Inhibition % data.
Inhibition %=[(Sample-Average ZPE)/(Average HPE-Average ZPE)]*100%^#

[1] = molecular target: COVID-19 (nCoV-2019, SARS-CoV2) Mpro (Severe acute respiratory syndrome coronavirus 2, UniProt P0DTD1); assay: COVID-19 (nCoV-2019, SARS-CoV2) Mpro enzymatic assay; assay type: biochemical; details: 25 nM Mpro, 25 μM substrate; read-out: COVID-19 Mpro IC50
HCov OC43 = assay: HCoV OC43 cytopathic effect (CPE) assay, CellTiter Glo; assay type: cell-based, human coronavirus (HCov) OC43
Method: Example 238: Evaluation of antiviral activity of compounds against human coronavirus (HCov) 229E and OC43 in the cytopathic effect (CPE) assays
Compounds were assayed using standard methods against multiple coronaviral strains, including HCoV 229E and OC43 strains. The antiviral activity of compounds was calculated based on the protection of the virus-induced CPE at each concentration normalized by the virus control.
Reference compound used was remdesivir; detection reagent: CellTiter Glo.) The CPE were measured by CellTiter Glo following the manufacturer's manual. The antiviral activity of compounds was calculated based on the protection of the virus-induced CPE at each concentration normalized by the virus control.
Cell viability was measured with CellTiter Glo.

[2] = Betacoronavirus 1, OC43, read-out: OC43 IC50 (uM) MEDIAN, median
[3] = read-out: OC43 IC50 (uM) MEDIAN, median

229E Mpro, sequence (P0C6X1 2966-3267): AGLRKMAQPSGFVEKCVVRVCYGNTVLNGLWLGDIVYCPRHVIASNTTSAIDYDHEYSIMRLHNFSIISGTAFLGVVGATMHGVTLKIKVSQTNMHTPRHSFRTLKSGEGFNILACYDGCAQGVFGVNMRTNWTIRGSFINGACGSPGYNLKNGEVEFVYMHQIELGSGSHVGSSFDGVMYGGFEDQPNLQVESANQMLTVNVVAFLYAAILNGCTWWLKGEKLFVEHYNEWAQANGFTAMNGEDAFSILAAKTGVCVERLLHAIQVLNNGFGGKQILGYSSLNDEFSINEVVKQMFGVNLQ

Row | Compound | EC50 (229E Mpro; 229E Mpro EC50) [µM] | IC50 [1] [µM] | IC50 (HCov OC43; [2]) [µM] | IC50 (HCov OC43; [3]) [µM] | EC50 (229E Mpro; read-out: 229E Mpro EC50) [µM]
1 | C[C@@]1(O)C[C@H](C(=O)N(c2ccc(S(F)(F)(F)(F)F)cc2)C(C(=O)NC2CCOCC2)c2cnccn2)N(C#N)C1 (stereo partly drawn) [Compound 1322, (2R,4R)-1-cyano-4-hydroxy-4-methyl-N-[2-oxo-1-pyrazin-2-yl-2-(tetrahydropyran-4-ylamino)ethyl]-N-[4-(pentafluoro-λ6-sulfanyl)phenyl]pyrrolidine-2-carboxamide] | < 2 | < 2 | < 2 | – | –
2 | C[C@@]1(O)C[C@H](C(=O)N(c2ccc(-c3ccccc3)cc2)C(C(=O)NC2CCC(F)(F)CC2)c2cncc(F)c2)N(C#N)C1 (single isomer, unassigned) [1330 Isomer 1] | < 2 | < 2 | – | < 2 | –
3 | N#CN1CC2C[C@@]1(C(=O)N(c1ccc(S(F)(F)(F)(F)F)cc1)C(C(=O)NC1CCC(F)(F)CC1)c1cncc(F)c1)CO2 (stereo partly shown) [Compound 1136b] | 2 to 10 | 2 to 10 | > 30 | – | –
4 | CC1(C)CN(C#N)[C@@H](C(=O)N(c2ccc(C(C)(C)C)cc2)C(C(=O)NC2CCOCC2)c2cccnc2)CO1 (single isomer, unassigned) [Compound 1141] | < 2 | < 2 | 2 to 10 | – | –
5 | N#CN1C[C@H]2C[C@H]2[C@@H]1C(=O)N(c1ccc(S(F)(F)(F)(F)F)cc1)C(C(=O)NC1CCC(F)(F)CC1)c1cncc(F)c1 (stereo partly drawn) [Compound 1095b, (1R,2R,5S)-3-cyano-N-[2-[(4,4-difluorocyclohexyl)amino]-1-(5-fluoro-3-pyridyl)-2-oxo-ethyl]-N-[4-(pentafluoro-λ^6-sulfanyl)phenyl]-3-azabicyclo[3.1.0]hexane-2-carboxamide] | < 2 | < 2 | < 2 | – | –
6 | CC1(C)CN(C#N)[C@@H](C(=O)N(c2ccc(C(C)(C)C)cc2)C(C(=O)NC2CCOCC2)c2cccnc2)CO1 (single isomer, unassigned) [1141 Isomer 2] | < 2 | < 2 | – | 2 to 10 | –
7 | C[C@@H]1CN(C#N)[C@H]1C(=O)N(c1ccc(S(F)(F)(F)(F)F)cc1)C(C(=O)NC1CCC(F)(F)CC1)c1cncc(F)c1 (single isomer, unassigned) [1211 Isomer 2] | – | < 2 | – | < 2 | < 2
8 | CO[C@@H]1C[C@H](C(=O)N(c2ccc(C3CC3)cc2F)C(C(=O)NC2CCC(F)(F)CC2)c2cnccc2C(F)(F)F)N(C#N)C1 (single isomer, unassigned) [Compound 1309 Isomer 1] | < 2 | < 2 | < 2 | – | –
9 | CS(=O)(=O)[C@H]1C[C@H](C(=O)N(c2ccc(S(F)(F)(F)(F)F)cc2)C(C(=O)NC2CCC(F)(F)CC2)c2cncc(F)c2)N(C#N)C1 (single isomer, unassigned) [1105 Isomer 2] | – | < 2 | – | < 2 | < 2
10 | CC(C)(C)c1ccc(N(C(=O)c2nccnc2C(N)=O)C(C(=O)NC2CCCCC2)c2cccnc2)cc1 (stereo not shown) [Compound 124a] | > 30 | > 30 | – | – | –
11 | N#CN1CCC(F)(F)C1C(=O)N(c1ccc(S(F)(F)(F)(F)F)cc1)C(C(=O)NC1CCOCC1)c1cncc(F)c1 (stereo not shown) [Compound 1274, 1-cyano-3,3-difluoro-N-[1-(5-fluoro-3-pyridyl)-2-oxo-2-(tetrahydropyran-4-ylamino)ethyl]-N-[4-(pentafluoro-λ^6-sulfanyl)phenyl]pyrrolidine-2-carboxamide] | < 2 | < 2 | < 2 | – | –
12 | CC(C)(C)c1ccc(N(C(=O)[C@@H]2CCCN2)C(C(=O)NC2CCCCC2)c2cccnc2)cc1 (single isomer, unassigned) [Compound 131c] | > 30 | > 30 | – | – | –
13 | CC(C)(C)c1ccc(N(C(=O)[C@H]2NCC2(C)C)[C@@H](C(=O)NC2CCCCC2)c2cccnc2)cc1 [Compound 136c] | > 30 | > 30 | – | – | –
14 | NC(=O)c1nc(C2CC2)ccc1N(C(=O)c1cnc[nH]1)[C@@H](C(=O)NC1CCCCC1)c1cccnc1 [Compound 832] | – | – | – | – | 2 to 10
15 | CC(C)(C)c1ccc(N(C(=O)[C@H]2N(C#N)CC2(C)C)C(C(=O)NC2CCCCC2)c2cccnc2)cc1 (stereo partly shown) [Compound 136a] | > 30 | > 30 | – | – | –
16 | CC(C)(C)c1ccc(N(C(=O)c2cnc[nH]2)C(C(=O)NC2CCCCC2)c2ncc(Cl)nc2C#N)cc1 (stereo not shown) [Compound 110] | > 30 | > 30 | – | – | –
17 | CC(C)(C)OC(=O)N1CC(C)(C(=O)N(c2ccc(C(C)(C)C)cc2)C(C(=O)NC2CCCCC2)c2cccnc2)C1 (stereo not shown) [Compound 129] | > 30 | > 30 | – | – | –
18 | CC1(C(=O)N(c2ccc(C(C)(C)C)cc2)C(C(=O)NC2CCCCC2)c2cccnc2)CNC1 (stereo not shown) [Compound 129a] | > 30 | > 30 | – | – | –
19 | CC(C)(C)c1ccc(N(C(=O)c2scnc2Cl)C(C(=O)NC2CCCCC2)c2cccnc2)cc1 (stereo not shown) [Compound 899a] | – | > 30 | – | – | –

Row | Compound | EC50 (229E Mpro; 229E Mpro EC50) [µM] | IC50 [1] [µM] | IC50 (HCov OC43; [2]) [µM] | IC50 (HCov OC43; [3]) [µM] | EC50 (229E Mpro; read-out: 229E Mpro EC50) [µM]
20 | CC(C)(C)OC(=O)N1CCC[C@@H]1C(=O)N(c1ccc(C(C)(C)C)cc1)C(C(=O)NC1CCCCC1)c1cccnc1 (single isomer, unassigned) [Compound 131a] | > 30 | > 30 | – | – | –
21 | CC(C)(C)OC(=O)N1CC(C(=O)N(c2ccc(C(C)(C)C)cc2)C(C(=O)NC2CCCCC2)c2cccnc2)C1 (stereo not shown) [Compound 126] | > 30 | > 30 | – | – | –
22 | CC(C)(C)c1ccc(N(C(=O)c2cnc[nH]2)C(C(=O)NC2CCCCC2)c2cncnc2)cc1 (stereo not shown) [Compound 104, N-(4-tert-butylphenyl)-N-[2-(cyclohexylamino)-2-oxo-1-pyrimidin-5-yl-ethyl]-1H-imidazole-5-carboxamide] | – | 2 to 10 | – | – | –
23 | CC(C)(C)OC(=O)N1CCC[C@@H]1C(=O)N(c1ccc(C(C)(C)C)cc1)C(C(=O)NC1CCCCC1)c1cccnc1 (stereo partly shown) [Compound 131b] | – | > 30 | – | – | > 30
24 | CC(C)(C)c1ccc(N(C(=O)c2cnc[nH]2)C(C(=O)NC2CCCCC2)c2ccc(C(F)(F)F)nc2Cl)cc1 (stereo not shown) [Compound 102a] | – | > 30 | – | – | –
25 | CC(C)(C)c1ccc(N(C(=O)C2CNC2)C(C(=O)NC2CCCCC2)c2cccnc2)cc1 (stereo not shown) [Compound 127] | > 30 | > 30 | – | – | –
26 | CC(C)(C)c1ccc(N(C(=O)c2nsnc2C#N)C(C(=O)NC2CCCCC2)c2cccnc2)cc1 (stereo not shown) [Compound 122, N-(4-tert-butylphenyl)-4-cyano-N-[2-(cyclohexylamino)-2-oxo-1-(3-pyridyl)ethyl]-1,2,5-thiadiazole-3-carboxamide] | – | – | – | – | > 30
27 | CC(C)(C)c1ccc(N(C(=O)[C@@H]2CCN2)[C@H](C(=O)NC2CCCCC2)c2cccnc2)cc1 [Compound 846] | – | – | – | – | < 2
28 | CC(C)(C)c1ccc(N(C(=O)[C@H]2CCCN2C#N)C(C(=O)NC2CCCCC2)c2cccnc2)cc1 (single isomer, unassigned) [Compound 130a] | < 2 | < 2 | – | – | –
29 | CC(C)(C)c1ccc(N(C(=O)[C@H]2CCCN2C#N)C(C(=O)NC2CCCCC2)c2cccnc2)cc1 (single isomer, unassigned) [Compound 130b] | 2 to 10 | > 30 | – | – | –
30 | NC(=O)c1nc(C2CC2)ccc1N(C(=O)c1cnc[nH]1)[C@H](C(=O)NC1CCCCC1)c1cccnc1 [Compound 833] | 2 to 10 | 2 to 10 | – | – | –
31 | CC(C)(C)c1ccc(N(C(=O)[C@@H]2CCCN2)C(C(=O)NC2CCCCC2)c2cccnc2)cc1 (stereo partly shown) [Compound 131d] | – | > 30 | – | – | > 30
32 | CC(C)(C)c1ccc(N(C(=O)c2cnc[nH]2)C(C(=O)NC2CCCCC2)c2cccnc2Br)cc1 (stereo not shown) [Compound 100a] | – | > 30 | – | – | –
33 | CC(C)(C)c1ccc(N(C(=O)[C@H]2NCC2(C)C)[C@H](C(=O)NC2CCCCC2)c2cccnc2)cc1 [Compound 136b] | > 30 | > 30 | – | – | –
34 | CC(C)(C)c1ccc(N(C(=O)c2nsnc2C(N)=O)C(C(=O)NC2CCCCC2)c2cccnc2)cc1 (stereo not shown) [Compound 123a] | > 30 | > 30 | – | – | –
35 | CC(C)(C)c1ccc(N(C(=O)[C@@H]2CCCN2C#N)C(C(=O)NC2CCCCC2)c2cccnc2)cc1 (stereo partly shown) [Compound 130c] | > 30 | > 30 | – | – | –
36 | CC(C)(C)c1ccc(N(C(=O)c2scnc2C#N)C(C(=O)NC2CCCCC2)c2cccnc2)cc1 (stereo not shown) [Compound 899, N-(4-tert-butylphenyl)-4-cyano-N-[2-(cyclohexylamino)-2-oxo-1-(3-pyridyl)ethyl]thiazole-5-carboxamide] | – | > 30 | – | – | –
37 | N#CN1C[C@H]2C[C@H]2[C@@H]1C(=O)N(c1ccc(S(F)(F)(F)(F)F)cc1)C(C(=O)NC1CCC(F)(F)CC1)c1cncc(F)c1 (single isomer, unassigned) [Compound 1095b Isomer 2] | – | < 2 | – | < 2 | –
